Test results: paper PMC12392461, “Beyond Estrogenicity: A Comparative Assessment of Bisphenol A and Its Alternatives in In Vitro Assays Questions Safety of Replacements” (Environmental Science & Technology, 2025)
Entries after “also recorded” stand apart in the source; their conditions may differ. Where two headings read alike, the source gives them in different places.

Columns and labels:
[1] = Stability in PBS (pH 7.4, 37 °C, 48 h)
Protocol: We tested the stability of all BPA alternatives and BPA in 0.1mM PBS (pH 7.4) for 48h at 37° C except for TMCD prior to the bioassay experiments. The experiment was performed as follows: 500 µL of a 2 mg/L solution of the chemical in PBS was aliquoted into 3 HPLC vials (n=3) and incubated for 48 h at 37 °C. The 2 mg/L solution was prepared by diluting the respective 10 g/L stock solution in a 10 mL glass crimp vial with an aluminum cap. For HPLC analysis, 500 µL acetonitrile was added prior to injection.
We have not tested stability of TMCD in aqueous media because we lacked a suitable […]
Figure S2: Detection of Bisphenol alternatives after 48 h incubation in 0.1mM PBS pH 7.4. Each data point represents the mean percentage with error bars indicating standard error of mean (SEM) of n=3 replicates.
S2: Cell culture and bioassays
S2.1: Cell Culturing Conditions
All suppliers and sources are given in detail in SI-Excel S3. The bioassay media for the different assays were prepared as follows: Assay medium for ER alpha-UAS-bla GripTite (ERα) and PPAR gamma-UAS-bla 293H (PPARγ) was prepared with 98% Opti-MEM, supplemented with 2% charcoal-stripped FBS, and 100 U/mL penicillin-streptomycin. MitoOxTox and AhR assay medium was comprised of 90% DMEM with GlutaMAX, supplemented with 10% FBS, and 100 U/mL penicillin-streptomycin. Neurotoxicity assay medium consisted of the neurobasal […]

[2] = cited from earlier work
[3] = system: ERα; test: Literature ERα reporter gene assays (comparison); assay type: cell-based; settings: for EC10, approx.: in M (unit assumed)
Protocol: S5.4: Comparison with literature data for ERα reporter gene assays
To improve data comparability with our own results we converted reported EC₅₀ to EC₁₀ by dividing by 9, which is the ratio for log-logistic concentration-response curves with a hillslope of 1 (Figure S9a). Additionally, REPBPA values were calculated to enable a more consistent evaluation. Methodological differences between studies must be considered, as Reiniger et al.24 used the YES assay, while Goksøyr et al.25 applied ERα from fish (Figure S9b).
Cyan symbols highlight the ER-UAS-bla GripTite (this study and Tox21GenBLA).
(1 picture or pasted object on this page, not shown here)

[4] = system: neuronal stem cells; settings: ref Liang et al.; cited from earlier work
[5] = system: Tox21 assays;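 note: published Tox21 results reanalysed with a revised model predicting baseline toxicity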
Text: We also reanalyzed the Tox21 data of Adamovsky et al. with the updated baseline toxicity prediction model (Table S2).

[6] = system: MCF-7 cells; parameters: method as in Singh et al. 2024; settings: ref Singh et al. 2024; cited from earlier work
[7] = parameters: method as in Soto et al.; settings: ref Soto et al.; cited from earlier work
[8] = Atlantic cod estrogen receptor, approximated from literature EC50, ref Goksøyr et al 2024
[9] = Atlantic cod estrogen receptor, ref Goksøyr et al 2024
[10] = approximated from literature EC50, ref Pelch et al 2019
[11] = approximated from literature EC50, ref Reiniger et Oehlmann 2024
[12] = approximated from literature values, ref Kojima et al 2019
[13] = relative estrogenic potency vs BPA, ref Kojima et al 2019
[14] = relative estrogenic potency vs BPA, ref Pelch et al 2019
[15] = relative estrogenic potency vs BPA, ref Reiniger et Oehlmann 2024

Row | SMILES | EC10, approx. [3, 8] | REPBPA [3, 9] | EC10, approx. [3, 10] | EC10, approx. [3, 11] | EC10, approx. [3, 12] | REPBPA [3, 13] | REPBPA [3, 14] | REPBPA [3, 15] | other results
1 | CC(C)(c1ccc(OCC2CO2)cc1)c1ccc(OCC2CO2)cc1 (stereo not drawn) [BADGE, Bisphenol A diglycidyl ether] | – | – | – | – | – | – | – | – | stability in phosphate-buffered saline [1]: unstable in aqueous solution; also recorded: lower parent concentration and potential contributions from hydrolysis products
2 | CC(C)(c1ccc(O)cc1)c1ccc(O)cc1 [BPA, 4,4'-(Propane-2,2-diyl)diphenol, reference compound] | ~2.11E-07 | 1.00E+00 | ~1.33E-07 | ~2.51E-07 | ~3.65E-08 | 1.00E+00 | 1.00E+00 | 1.00E+00 | log (KBSAw /(Lw/Lprotein)) (neutral species) ([2]; exp. + log(1.36 kg/L), ref Endo and Goss 2011): 3.57; predicted or literature experimental log Kow ([2]; ref Hansch, 1995): 3.32; log D lipw ([2]; pH 7.4, ref Kwon et al. 2006): 3.65; log (DBSAw /(Lw/Lprotein) (pH7.4)) ([2]; ref Endo and Goss 2011): 3.01; log (KBSAw /(Lw/kgprotein)) (neutral species) ([2]; ref Endo and Goss 2011): 3.44; log (Dlipw/(Lwater/kglipid) or (Lwater/Llipid)) (pH 7.4) ([2]; ref Kwon et al. 2006): 3.65; concentration with significant reduction in average neurite length [4]: 1 nM
3 | Oc1ccc(C(c2ccc(O)cc2)(C(F)(F)F)C(F)(F)F)cc1 [BPAF, 4,4'-(1,1,1,3,3,3-Hexafluoropropane-2,2-diyl)diphenol] | ~2.56E-08 | 8.26E+00 | ~1.44E-08 | ~4.82E-08 | ~4.30E-08 | 8.49E-01 | 9.23E+00 | 5.21E+00 | –
4 | CC(c1ccccc1)(c1ccc(O)cc1)c1ccc(O)cc1 [BPAP, 4,4'-(1-Phenylethylidene)bisphenol] | – | – | – | ~1.04E-07 | ~1.45E-07 | 2.52E-01 | – | – | –
5 | CCC(C)(c1ccc(O)cc1)c1ccc(O)cc1 [BPB, 4,4'-(Butane-2,2-diyl)diphenol] | ~1.78E-07 | 1.19E+00 | ~3.56E-08 | ~1.87E-07 | ~1.15E-08 | 3.17E+00 | 3.75E+00 | 1.35E+00 | –
6 | Oc1ccc(Cc2ccc(O)cc2)cc1 [BPF, Bis(4-hydroxyphenyl)methane] | ~4.22E-07 | 5.00E-01 | ~1.78E-07 | ~2.82E-07 | ~5.50E-08 | 6.64E-01 | 7.50E-01 | 8.90E-01 | predicted or literature experimental log Kow ([2]; ref Hansch, 1995): 2.91; concentration with significant reduction in average neurite length [4]: 1 nM
7 | O=S(=O)(c1ccc(O)cc1)c1ccc(O)cc1 [BPS, 4,4'-Sulfonyldiphenol] | ~9.26E-06 | 2.28E-02 | ~1.44E-07 | ~7.13E-09 | ~8.50E-07 | 4.29E-02 | 9.23E-01 | 3.52E+01 | concentration with significant reduction in average neurite length [4]: 1 nM
8 | Oc1ccc(Sc2ccc(O)cc2)cc1 [BPT, 4,4'-Thiodiphenol] | – | – | – | – | – | – | – | – | predicted or literature experimental log Kow ([2]; ref Hansch, 1995): 3.34
9 | O=C(OCc1ccccc1)c1ccc(O)cc1 [BzPB, Benzyl 4-hydroxybenzoate] | – | – | – | – | – | – | – | – | predicted or literature experimental log Kow ([2]; ref Lehner 1993): 3.56
10 | CC(C)(c1cc(Br)c(O)c(Br)c1)c1cc(Br)c(O)c(Br)c1 [TBBPA, 3,3',5,5'-Tetrabromobisphenol A] | – | – | – | – | – | – | – | – | REPBPA [5]: 29.73; SRbaseline [5]: 90.68; REPBPA ([5]; ATG_PPARg_TRANS_up, Relative Effect Potency): 3.44; SRbaseline ([5]; ATG_PPARg_TRANS_up, Specificity Ratio): 12.11; REPBPA ([5]; ATG_hPPARg_XSP1_up, Relative Effect Potency): 2.58; SRbaseline ([5]; ATG_hPPARg_XSP1_up, Specificity Ratio): 11.21; REPBPA ([5]; ATG_hPPARg_XSP2_up, Relative Effect Potency): 6.45; SRbaseline ([5]; ATG_hPPARg_XSP2_up, Specificity Ratio): 28.04
11 | Cc1cc(Cc2cc(C)c(O)c(C)c2)cc(C)c1O [TMBPF, Bis(3,5-dimethyl-4-hydroxyphenyl)methane] | – | – | – | – | – | – | – | – | estrogenicity in MCF-7 cells [6]: inactive in estrogenicity assays using MCF-7 cells; estrogenicity in vivo [7]: nonestrogenic in vivo
